The term IC50 denotes the midpoint of a concentration-inhibition curve.

The values that follow come from patent US20260125389A1, “MEMBRANE-ASSOCIATED TYROSINE AND THREONINE KINASE INHIBITOR AND USE THEREOF” (HAINAN SIMCERE ZAIMING PHARMACEUTICAL CO., LTD., priority 2022, published 2026).

The first assay relates to HCC1569 cells. The assay is described as follows: Inhibition of tumor cell proliferation (CTG, HCC1569). Type of assay: cell-based. The settings on record: Homo sapiens, 168 h, 7 days incubation, CTG readout, read-out: IC50 of compounds for inhibition of HCC1569 cell growth. On the procedure:
Experimental principle: The compound was incubated with tumor cells for 7 days, and ATP in viable cells was quantified using the CTG kit from Promega to evaluate the effect of the compound on tumor cell proliferation.
Experimental method: The cultured cells were resuspended after being rinsed with PBS (for adherent cells) and digested with 0.25% Trypsin-EDTA, followed by cell counting to determine cell density and viability. 3000 HCC1569 cells/well were diluted with RPMI Medium 1640 containing 10% FBS, added to a 96-well plate (90 μL/well), and cultured in an incubator at 37° C. with 5% CO2 for 24 h. The test compound was diluted to different concentrations in dimethyl sulfoxide (DMSO) and added to a 96-well plate. Thus, the final concentration of the compound in the reaction system started at 25 μM and was subjected to a 4-fold serial dilution, with the final DMSO concentration maintained at 0.25%. The compound and cells were further incubated at 37° C. with 5% CO2 for 7 days. 50 μL/well of CTG was then added to measure the inhibitory effect of the compound on tumor cell growth, and the inhibition rate and half-maximal inhibitory concentration (IC50) were calculated.
The % compound inhibition was calculated and fitted using XLfit software to obtain the IC50 of the compound.
Blank wells and DMSO wells were set up. The blank well contained 100 μL of RPMI Medium 1640 with 10% FBS, where the inhibition rate of the compound on tumor cell growth was considered 100%. The DMSO well contained 0.25% DMSO added to the cell well, where the inhibition rate of the compound on tumor cell growth was considered 0%.
With `Cc1ccc(O)c(C)c1-n1c(N)c2c3c(ncnc31)-c1ccccc1NC2=O` [Compound 1, 5-amino-4-(3-hydroxy-2,6-dimethylphenyl)-4,7-dihydro-6H-1,3,4,7-tetraazadibenzo[cd,f]azulen-6-one], the IC50 is 42 nM. Regarding `Cc1nc2c3c(c(N)n(-c4c(C)ccc(O)c4C)c3n1)C(=O)Nc1ccccc1-2` [Compound 2, 5-amino-4-(3-hydroxy-2,6-dimethylphenyl)-2-methyl-4,7-dihydro-6H-1,3,4,7-tetraazadibenzo[cd,f]azulen-6-one], the IC50 turned out to be 22 nM. Still for that read-out and setting: the figure for `Cc1nc2c3c(c(N)n(-c4c(C)ccc(O)c4C)c3n1)C(=O)Nc1scnc1-2` [Compound 38, 5-amino-4-(3-hydroxy-2,6-dimethylphenyl)-2-methyl-4,7-dihydro-6H-8-thia-1,3,4,7,10-pentaazabenzo[cd]cyclopenta[f]azulen-6-one] is 92 nM; for `Cc1nc2c3c(c(N)n(-c4c(C)ccc(O)c4C)c3n1)C(=O)NCc1c-2ccnc1OC(F)F` [Compound 39, 2-amino-6-(difluoromethoxy)-1-(3-hydroxy-2,6-dimethylphenyl)-11-methyl-4,5-dihydro-1,4,7,10,12-pentaazabenzo[4,5]cyclooctatetraeno[1,2,3-cd]inden-3(1H)-one] it is 81.9 nM. The same measure, in the same setting: with `Cc1nc2c3c(c(N)n(-c4c(C)ccc(O)c4C)c3n1)C(=O)NCc1c-2ccnc1OCF` [Compound 40, 2-amino-6-(fluoromethoxy)-1-(3-hydroxy-2,6-dimethylphenyl)-11-methyl-4,5-dihydro-1,4,7,10,12-pentaazabenzo[4,5]cyclooctatetraeno[1,2,3-cd]inden-3(1H)-one] the figure was 87.6 nM; with `Cc1nc2c3c(c(N)n(-c4c(C)ccc(O)c4C)c3n1)C(=O)NCc1c-2ccnc1OC(F)(F)F` [Compound 41, 2-amino-1-(3-hydroxy-2,6-dimethylphenyl)-11-methyl-6-(trifluoromethoxy)-4,5-dihydro-1,4,7,10,12-pentaazabenzo[4,5]cyclooctatetraeno[1,2,3-cd]inden-3(1H)-one], 86.1 nM; with `Cc1nc2c3c(c(N)n(-c4c(C)ccc(O)c4C)c3n1)C(=O)Nc1c-2cnn1C(F)F` [Compound 42, 5-amino-8-(difluoromethyl)-4-(3-hydroxy-2,6-dimethylphenyl)-2-methyl-7,8-dihydro-1,3,4,7,8,9-hexaazabenzo[cd]cyclopenta[f]azulen-6(4H)-one], 46.3 nM. As for `COCCn1ncc2c1NC(=O)c1c(N)n(-c3c(C)ccc(O)c3C)c3nc(C)nc-2c13` [Compound 43, 5-amino-4-(3-hydroxy-2,6-dimethylphenyl)-8-(2-methoxyethyl)-2-methyl-7,8-dihydro-1,3,4,7,8,9-hexaazabenzo[cd]cyclopenta[f]azulen-6(4H)-one], the IC50 was found to be 291 nM. On the same count and under the same terms, with `Cc1ccc(O)c(C)c1-n1c(N)c2c3c(c(C)c(C)nc31)-c1nn(C)cc1NC2=O` [Compound 44, 5-amino-4-(3-hydroxy-2,6-dimethylphenyl)-1,2,9-trimethyl-7,9-dihydro-3,4,7,9,10-pentaazabenzo[cd]cyclopenta[f]azulen-6(4H)-one] the figure was 55.2 nM; with `Cc1nc2c3c(c(N)n(-c4c(C)ccc(O)c4C)c3n1)C(=O)NCc1c-2ccnc1C#N` [Compound 45, 2-amino-1-(3-hydroxy-2,6-dimethylphenyl)-11-methyl-3-oxo-1,3,4,5-tetrahydro-1,4,7,10,12-pentaazabenzo[4,5]cyclooctatetraeno[1,2,3-cd]indene-6-carbonitrile], 194 nM; with `Cc1nc2c3c(c(N)n(-c4c(C)ccc(O)c4C)c3n1)C(=O)NCc1c-2ccnc1C1CC1` [Compound 46, 2-amino-6-cyclopropyl-1-(3-hydroxy-2,6-dimethylphenyl)-11-methyl-4,5-dihydro-1,4,7,10,12-pentaazabenzo[4,5]cyclooctatetraeno[1,2,3-cd]inden-3(1H)-one], 113 nM. On the same count and under the same terms, the figure for `CCOc1nccc2c1CNC(=O)c1c(N)n(-c3c(C)ccc(O)c3C)c3nc(C)nc-2c13` [Compound 47, 2-amino-6-ethoxy-1-(3-hydroxy-2,6-dimethylphenyl)-11-methyl-4,5-dihydro-1,4,7,10,12-pentaazabenzo[4,5]cyclooctatetraeno[1,2,3-cd]inden-3(1H)-one] is 32 nM. Same read-out and setting: with `Cc1nc2c3c(c(N)n(-c4c(C)ccc(O)c4C)c3n1)C(=O)NCc1c-2ccc(F)c1C#N` [Compound 49, 2-amino-7-fluoro-1-(3-hydroxy-2,6-dimethylphenyl)-11-methyl-3-oxo-1,3,4,5-tetrahydro-1,4,10,12-tetraazabenzo[4,5]cyclooctatetraeno[1,2,3-cd]inden-6-carbonitrile] the figure was 20.9 nM.

The target of the next assay is T1, PKMYT1 (Homo sapiens, UniProt Q99640).
T1 sequence (Q99640 1-499): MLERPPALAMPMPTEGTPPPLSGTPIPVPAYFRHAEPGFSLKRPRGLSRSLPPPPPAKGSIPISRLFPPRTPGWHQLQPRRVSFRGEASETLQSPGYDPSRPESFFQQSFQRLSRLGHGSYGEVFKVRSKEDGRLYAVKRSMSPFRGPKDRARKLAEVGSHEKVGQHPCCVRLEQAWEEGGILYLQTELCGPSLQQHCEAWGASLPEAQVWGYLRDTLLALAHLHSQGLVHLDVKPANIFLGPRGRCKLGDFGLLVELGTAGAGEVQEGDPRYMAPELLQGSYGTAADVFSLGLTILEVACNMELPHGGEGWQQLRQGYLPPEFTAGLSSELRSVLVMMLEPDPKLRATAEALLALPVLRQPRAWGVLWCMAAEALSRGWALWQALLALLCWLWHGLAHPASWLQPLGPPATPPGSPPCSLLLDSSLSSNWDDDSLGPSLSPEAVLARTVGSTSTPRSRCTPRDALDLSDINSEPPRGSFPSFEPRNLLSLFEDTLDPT
The assay is described as follows: Inhibition assay for PKMYT1 enzyme activity (ADP-Glo). Type of assay: biochemical. The settings on record: MYT1 2 ng/μL, ATP 25 μM, substrate CDK1 20 ng/μL, 40 min reaction, read-out: IC50 values of compounds for PKMYT1 inhibition activity. On the procedure: Experimental principle: After co-incubation of PKMYT1 with the compound, the substrate CDK1 was phosphorylated under the action of ATP. ADP produced by the reaction was quantified using an ADP-Glo™ assay kit from Promega to reflect the enzyme activity.
Experimental method: Using the Echo liquid handler, the test compound was diluted to different concentrations in dimethyl sulfoxide (DMSO) and transferred to a 384-well plate. Thus, the final concentration of the compound in the reaction system started at 1 μM and was subjected to a 3-fold serial dilution, with the final DMSO concentration maintained at 1%. 50 nL/well of the test compound solution was added. 3 μL/well of MYT1 diluted with Kinase Dilution Buffer was then added. […] After incubation for 30 min, the fluorescence signal values were measured using an Envision microplate reader.
The % compound inhibition was calculated and fitted using XLfit software to obtain the IC50 value of the compound. […]
Herein, the experimental well, blank well, and DMSO group refer to the fluorescence signal values recorded from the experimental group, blank group, and DMSO group, respectively.
The inhibitory activity of the compounds of the present application on PKMYT1 was determined by the above assay, and the IC50 values obtained are as shown in Table 1.
Consider `Cc1ccc(O)c(C)c1-n1c(N)c2c3c(ncnc31)-c1ccccc1NC2=O` [Compound 1, 5-amino-4-(3-hydroxy-2,6-dimethylphenyl)-4,7-dihydro-6H-1,3,4,7-tetraazadibenzo[cd,f]azulen-6-one], for which the IC50 worked out at 8.8 nM. On the same count and under the same terms, the figure for `Cc1nc2c3c(c(N)n(-c4c(C)ccc(O)c4C)c3n1)C(=O)Nc1ccccc1-2` [Compound 2, 5-amino-4-(3-hydroxy-2,6-dimethylphenyl)-2-methyl-4,7-dihydro-6H-1,3,4,7-tetraazadibenzo[cd,f]azulen-6-one] is 5.7 nM.
